Data reported in patent US20230117034A1, “PYRAZOLOTRIAZINES” (Bayer Aktiengesellschaft, priority 2019, published 2023).

Columns and labels:
CDK2/CycE = molecular target: T1, CDK2/CycE (Homo sapiens, UniProt P24941); test: CDK2/CycE kinase assay (TR-FRET, 2 mM ATP); format: biochemical; conditions: 2 mM ATP (high ATP); median; read-out: CDK2/CyclinE, 2 mM ATP (high ATP), IC50 (median)
T1 construct: purchased ProQinase GmbH (Freiburg, Germany); host or cells: insect cells (Sf9)
Procedure, shortened: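 Biotin-peptide phosphorylation (0.75 µM substrate, 2 mM ATP final, 25 min, 22 °C) by Sf9-expressed GST-CDK2/GST-CycE, after a 15-min compound pre-binding step. Inhibition scaled between enzyme-free (100%) and uninhibited (0%) wells.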

CDK12/CycK = CDK12/CycK (Homo sapiens, UniProt Q9NYV4); test: CDK12/CycK high ATP kinase assay (TR-FRET, 2 mM ATP); format: biochemical; conditions: 2 mM ATP (high ATP); median; read-out: CDK12/CyclinK, 2 mM ATP (high ATP), IC50-[mol/l] (median)
Chain of CDK12/CycK (Q9NYV4 with tags, fused parts or gaps): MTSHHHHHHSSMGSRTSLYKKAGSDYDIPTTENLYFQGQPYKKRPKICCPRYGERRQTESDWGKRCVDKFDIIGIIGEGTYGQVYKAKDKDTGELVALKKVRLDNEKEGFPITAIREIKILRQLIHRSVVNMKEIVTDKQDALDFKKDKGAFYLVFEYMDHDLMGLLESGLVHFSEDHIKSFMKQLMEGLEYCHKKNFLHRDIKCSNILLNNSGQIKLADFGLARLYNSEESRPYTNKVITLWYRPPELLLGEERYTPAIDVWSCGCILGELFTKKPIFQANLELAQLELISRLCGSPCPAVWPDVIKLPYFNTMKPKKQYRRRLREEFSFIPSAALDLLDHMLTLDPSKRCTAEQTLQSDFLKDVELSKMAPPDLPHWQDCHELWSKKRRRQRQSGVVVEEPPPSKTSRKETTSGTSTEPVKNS
Chain of CDK12/CycK (O75909 1-300 partner limits assumed): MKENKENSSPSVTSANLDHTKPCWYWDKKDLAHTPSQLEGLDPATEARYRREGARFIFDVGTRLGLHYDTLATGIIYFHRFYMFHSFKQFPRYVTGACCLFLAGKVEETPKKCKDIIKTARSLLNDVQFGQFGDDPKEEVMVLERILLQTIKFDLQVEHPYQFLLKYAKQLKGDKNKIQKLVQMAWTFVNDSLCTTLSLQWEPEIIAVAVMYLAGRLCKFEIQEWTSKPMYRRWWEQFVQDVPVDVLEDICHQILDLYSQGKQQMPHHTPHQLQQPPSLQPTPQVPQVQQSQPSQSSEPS
Procedure, shortened: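 Read-out is TR-FRET (Eu-anti-rabbit IgG, anti-phospho-c-Myc Ser62 antibody, streptavidin-XL665) after EDTA stop. Reaction ran 60 min at 22 °C using 1 µM biotin-peptide and high ATP (2 mM) with roughly 0.75 nM recombinant CDK12/CycK, after 15 min compound pre-binding; normalised emission ratios yield IC50.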

Row | Structure (SMILES) | IC50 (CDK2/CycE) [µM] | IC50 (CDK12/CycK) [µM]
1 | FC(F)(F)c1cnn2c(NCc3nc4ccccc4[nH]3)nc(N3CCOCC3)nc12 [Example 241, N-[(1H-benzimidazol-2-yl)methyl]-2-(morpholin-4-yl)-8-(trifluoromethyl) pyrazolo[1,5-a][1,3,5]triazin-4-amine] | 12 | 0.805
2 | CN(C)C1CCN(c2nc(NCc3nc4ccccc4[nH]3)n3ncc(Br)c3n2)CC1 [Example 201, N-[(1H-benzimidazol-2-yl)methyl]-8-bromo-2-[4-(dimethylamino)piperidin-1-yl]pyrazolo[1,5-a][1,3,5]triazin-4-amine] | > 20 | > 20
3 | Fc1ccc2[nH]c(CNc3nc(N4C[C@@H]5CCCN[C@@H]5C4)nc4c(C5CC5)cnn34)nc2c1F [Example 171, 8-cyclopropyl-N-[(4,5-difluoro-1H-benzimidazol-2-yl)methyl]-2-[(4aS,7aS)-octahydro-6H-pyrrolo[3,4-b]pyridin-6-yl]pyrazolo[1,5-a][1,3,5]triazin-4-amine] | > 20 | 6.56
4 | Fc1ccc2[nH]c(CNc3nc(N4C[C@@H]5C[C@H]4CO5)nc4c(C5CC5)cnn34)nc2c1 [Example 185, 8-cyclopropyl-N-[(5-fluoro-1H-benzimidazol-2-yl)methyl]-2-[(1S,4S)-2-oxa-5-azabicyclo[2.2.1]heptan-5-yl]pyrazolo[1,5-a][1,3,5]triazin-4-amine] | > 20 | > 19.6
5 | C[C@@H]1CN(c2nc(NCc3nc4c(F)c(F)ccc4[nH]3)n3ncc(C4CC4)c3n2)C[C@H](C)N1 [Example 170, 8-cyclopropyl-N-[(4,5-difluoro-1H-benzimidazol-2-yl)methyl]-2-[(3R,5S)-3,5-dimethylpiperazin-1-yl]pyrazolo[1,5-a][1,3,5]triazin-4-amine] | > 20 | 3.04
6 | CN1CC2CCC(C1)N2c1nc(NCc2nc3ccccc3[nH]2)n2ncc(Br)c2n1 [Example 226, N-(1H-benzimidazol-2-ylmethyl)-8-bromo-2-(3-methyl-3,8-diazabicyclo[3.2.1]octan-8-yl)pyrazolo[1,5-a][1,3,5]triazin-4-amine] | > 20 | > 20
7 | CCN(C)c1nc(NCc2nc3ccccc3[nH]2)n2ncc(Br)c2n1 [Example 233, N4-(1H-benzimidazol-2-ylmethyl)-8-bromo-N2-ethyl-N2-methyl-pyrazolo[1,5-a][1,3,5]triazine-2,4-diamine] | 5.35 | 7.54
8 | OC[C@@H]1CCCCN1c1nc(NCc2nc3cc(F)ccc3[nH]2)n2ncc(C3CC3)c2n1 [Example 191, [(2S)-1-(8-cyclopropyl-4-{[(5-fluoro-1H-benzimidazol-2-yl)methyl]amino}pyrazolo[1,5-a][1,3,5]triazin-2-yl)piperidin-2-yl]methanol] | 1.77 | 0.332
9 | CN1CC2CN(c3nc(NCc4nc5ccccc5[nH]4)n4ncc(Br)c4n3)CC2C1 (stereo not shown) [Example 240, N-(1H-benzimidazol-2-ylmethyl)-8-bromo-2-(2-methyl-1,3,3a,4,6,6a-hexahydropyrrolo[3,4-c]pyrrol-5-yl)pyrazolo[1,5-a][1,3,5]triazin-4-amine] | 15.5 | > 20
10 | CC(C)c1cnn2c(NCc3nc4ccccc4[nH]3)nc(Nc3ccccc3)nc12 [Example 13, N^4-[(1H-benzimidazol-2-yl)methyl]-N^2-phenyl-8-(propan-2-yl)pyrazolo[1,5-a][1,3,5]triazine-2,4-diamine] | > 20 | > 20
11 | Fc1ccc2[nH]c(CNc3nc(N4C[C@@H]5C[C@H]4CO5)nc4c(C5CC5)cnn34)nc2c1F [Example 173, 8-cyclopropyl-N-[(4,5-difluoro-1H-benzimidazol-2-yl)methyl]-2-[(1S,4S)-2-oxa-5-azabicyclo[2.2.1]heptan-5-yl]pyrazolo[1,5-a][1,3,5]triazin-4-amine] | > 20 | > 20
